Assay results as given in paper PMC9571433, “Design, Synthesis, Anti-Varicella-Zoster and Antimicrobial Activity of (Isoxazolidin-3-yl)Phosphonate Conjugates of N1-Functionalised Quinazoline-2,4-Diones” (Molecules, 2022).
Converted amounts (≈) assume the structure as drawn. Where two headings read alike, the source gives them in different places.

Legend:
B. cereus PCM 1948 = assay: Broth microdilution MIC/MBC; settings: Bacillus cereus
[1] = tested on: A. brasiliensis ATCC 16404; assay: Broth microdilution MIC/MBC (antifungal); settings: Aspergillus brasiliensis
E. faecalis ATCC 29212 = assay: Broth microdilution MIC/MBC; settings: Enterococcus faecalis, ATCC29212, 24 h
E. coli ATCC 25922 = assay: Broth microdilution MIC/MBC; settings: Escherichia coli
TK– VZV 07-1 strain = assay: microbe, parasite or virus in culture; format: cell-based, varicella-zoster virus; settings: Human alphaherpesvirus 3, HEL, read-out: Antiviral Activity EC50 TK– VZV Strain (07-1)
P. aeruginosa ATCC 27853 = assay: Broth microdilution MIC/MBC; settings: Pseudomonas aeruginosa, ATCC27853, 24 h, read-out: MIC = MBC
[2] = tested on: human embryonic lung (HEL) cells; settings: minimum cytotoxic concentration causing microscopically detectable alteration of cell morphology
C. albicans ATCC 10241 = assay: Broth microdilution MIC/MBC (antifungal); settings: Candida albicans
TK+ VZV OKA strain = assay: microbe, parasite or virus in culture; format: cell-based, varicella-zoster virus; settings: Human alphaherpesvirus 3, HEL, read-out: Antiviral Activity EC50 TK+ VZV Strain (OKA)
S. aureus ATCC 2593 = assay: Broth microdilution MIC/MBC; settings: Staphylococcus aureus, ATCC2593, 24 h, read-out: MIC = MBC
feline herpes viruses = tested on: feline herpes viruses; set-up: method as in PMID 24906510, PMID 28763115, PMID 24219992; settings: read-out: EC50 toward feline herpes viruses; cited from earlier work
[3] = PCM1948, 24 h, read-out: MIC = MBC
[4] = ATCC16404, 72 h, read-out: MIC = MBC
[5] = ATCC25922, 24 h, read-out: MIC = MBC

SMILES | MIC (B. cereus PCM 1948; [3]) [µg/mL] | MIC [1, 4] [µg/mL] | MBC (E. faecalis ATCC 29212) [µg/mL] | MIC (E. faecalis ATCC 29212) [µg/mL] | MIC (E. coli ATCC 25922; [5]) [µg/mL] | EC50 (TK– VZV 07-1 strain) [µM] | MIC (P. aeruginosa ATCC 27853) [µg/mL] | Cytotoxicity Cell Morphology MCC [2] [μM] | MIC (C. albicans ATCC 10241; ATCC10241, read-out: MIC = MBC) [µg/mL] | EC50 (TK+ VZV OKA strain) [µM] | MIC (S. aureus ATCC 2593) [µg/mL] | MIC (E. coli ATCC 25922; ATCC25922) [µg/mL] | MIC (B. cereus PCM 1948; PCM1948) [µg/mL] | MBC ([1]; ATCC16404) [µg/mL] | MIC ([1]; ATCC16404) [µg/mL] | MBC (C. albicans ATCC 10241; ATCC10241) [µg/mL] | MIC (C. albicans ATCC 10241; ATCC10241) [µg/mL] | EC50 (feline herpes viruses) [µM]
CCOP(=O)(OCC)[C@H]1C[C@H](Cn2c(=O)c3ccccc3n(Cc3ccccc3)c2=O)ON1Cc1ccccc1 (relative stereo) [Diethyl trans-(2-benzyl-5-((1-benzyl-2,4-dioxo-1,4-dihydroquinazolin-3(2H)-yl)methyl)isoxazolidin-3-yl)phosphonate] | 1250 (≈ 2.22 mM) | 5000 (≈ 8.87 mM) | > 5000 | > 5000 | 2500 (≈ 4.44 mM) | 34.2 | 2500 (≈ 4.44 mM) | 100 | 5000 (≈ 8.87 mM) | 14.5 | 5000 (≈ 8.87 mM) |  |  |  |  |  |  | 
CCOP(=O)(OCC)[C@H]1C[C@H](Cn2c(=O)c3ccccc3n(Cc3ccccc3F)c2=O)ON1C (relative stereo) [Diethyl trans-(5-((1-(2-fluorobenzyl)-2,4-dioxo-1,4-dihydroquinazolin-3(2H)-yl)methyl)-2-methylisoxazolidin-3-yl)phosphonate] | 1250 (≈ 2.47 mM) | 5000 (≈ 9.89 mM) | > 5000 | > 5000 | 2500 (≈ 4.95 mM) | 58.5 | 2500 (≈ 4.95 mM) | >100 | 2500 (≈ 4.95 mM) | 31.7 | 5000 (≈ 9.89 mM) |  |  |  |  |  |  | 
CCOP(=O)(OCC)[C@H]1C[C@H](Cn2c(=O)c3ccccc3n(Cc3ccc(F)cc3)c2=O)ON1C (relative stereo) [Diethyl trans-(5-((1-(4-fluorobenzyl)-2,4-dioxo-1,4-dihydroquinazolin-3(2H)-yl)methyl)-2-methylisoxazolidin-3-yl)phosphonate] | 1250 (≈ 2.47 mM) | 5000 (≈ 9.89 mM) | > 5000 | > 5000 | 2500 (≈ 4.95 mM) | 38.1 | 2500 (≈ 4.95 mM) | >100 | 2500 (≈ 4.95 mM) | 58.5 | 5000 (≈ 9.89 mM) |  |  |  |  |  |  | 
C=CCn1c(=O)c2ccccc2n(Cc2ccccc2)c1=O [24a, 3-Allyl-1-benzylquinazoline-2,4-dione] | 5000 (≈ 17.1 mM) | 5000 (≈ 17.1 mM) | > 5000 | > 5000 | 2500 (≈ 8.55 mM) | 100 | 2500 (≈ 8.55 mM) | >100 | 5000 (≈ 17.1 mM) | 100 | 5000 (≈ 17.1 mM) |  |  |  |  |  |  | 
C=CCn1c(=O)c2ccccc2n(Cc2ccccc2F)c1=O [24b, 3-Allyl-1-(2-fluorobenzyl)quinazoline-2,4-dione] | 2500 (≈ 8.06 mM) | 5000 (≈ 16.1 mM) | > 5000 | > 5000 | 2500 (≈ 8.06 mM) | 64.5 | 2500 (≈ 8.06 mM) | >100 | 5000 (≈ 16.1 mM) | > 100 | 5000 (≈ 16.1 mM) |  |  |  |  |  |  | 
C=CCn1c(=O)c2ccccc2n(Cc2cccc(F)c2)c1=O [24c, 3-Allyl-1-(3-fluorobenzyl)quinazoline-2,4-dione] | 5000 (≈ 16.1 mM) | 5000 (≈ 16.1 mM) | > 5000 | > 5000 | 1250 (≈ 4.03 mM) | > 100 | 2500 (≈ 8.06 mM) | >100 | 2500 (≈ 8.06 mM) | > 100 | 5000 (≈ 16.1 mM) | 1250 (≈ 4.03 mM) |  |  |  |  |  | 
C=CCn1c(=O)c2ccccc2n(Cc2ccc(F)cc2)c1=O [24d, 3-Allyl-1-(4-fluorobenzyl)quinazoline-2,4-dione] | 5000 (≈ 16.1 mM) | 5000 (≈ 16.1 mM) | > 5000 | > 5000 | 2500 (≈ 8.06 mM) | > 20 | 2500 (≈ 8.06 mM) | 100 | 2500 (≈ 8.06 mM) | 54.7 | 5000 (≈ 16.1 mM) |  |  |  |  |  |  | 
NCC[C@H](O)C(=O)N[C@@H]1C[C@H](N)[C@@H](O[C@H]2O[C@H](CN)[C@@H](O)[C@H](O)[C@H]2O)[C@H](O)[C@H]1O[C@H]1O[C@H](CO)[C@@H](O)[C@H](N)[C@H]1O [Amikacin, reference compound] | 20 (≈ 0.0342 mM) |  |  | 0.625 (≈ 0.00107 mM) | 0.625 (≈ 0.00107 mM) |  | 20 (≈ 0.0342 mM) |  |  |  | 1 (≈ 0.00171 mM) |  | 20 (≈ 0.0342 mM) |  |  |  |  | 
O=c1[nH]c(=O)n([C@H]2C[C@H](O)[C@@H](CO)O2)cc1/C=C/Br [Brivudin, reference compound] |  |  |  |  |  | 12 |  | >300 |  | 0.026 |  |  |  |  |  |  |  | 
CCOP(=O)(OCC)C1CC(Cn2c(=O)c3ccccc3n(Cc3ccccc3F)c2=O)ON1Cc1ccccc1 (stereo not drawn) [Diethyl trans-(2-benzyl-5-((1-(2-fluorobenzyl)-2,4-dioxo-1,2-dihydroquinazolin-3(2H)-yl)methyl)isoxazolidin-3-yl)phosphonate] | 1250 (≈ 2.15 mM) | 5000 (≈ 8.6 mM) | > 5000 | > 5000 | 2500 (≈ 4.3 mM) | 27.6 | 2500 (≈ 4.3 mM) | 100 | 2500 (≈ 4.3 mM) | 12.6 | 5000 (≈ 8.6 mM) |  |  |  |  |  |  | 
CCOP(=O)(OCC)C1CC(Cn2c(=O)c3ccccc3n(Cc3cccc(F)c3)c2=O)ON1Cc1ccccc1 (stereo not drawn) [Diethyl trans-(2-benzyl-5-((1-(3-fluorobenzyl)-2,4-dioxo-1,2-dihydroquinazolin-3(2H)-yl)methyl)isoxazolidin-3-yl)phosphonate] | 2500 (≈ 4.3 mM) | 5000 (≈ 8.6 mM) | > 5000 | > 5000 | 1250 (≈ 2.15 mM) | 14.5 | 2500 (≈ 4.3 mM) | 20 | 2500 (≈ 4.3 mM) | 20 | 5000 (≈ 8.6 mM) | 1250 (≈ 2.15 mM) |  |  |  |  |  | 
CCOP(=O)(OCC)C1CC(Cn2c(=O)c3ccccc3n(Cc3ccc(F)cc3)c2=O)ON1Cc1ccccc1 (stereo not drawn) [Diethyl trans-(2-benzyl-5-((1-(4-fluorobenzyl)-2,4-dioxo-1,2-dihydroquinazolin-3(2H)-yl)methyl)isoxazolidin-3-yl)phosphonate] | 1250 (≈ 2.15 mM) | 5000 (≈ 8.6 mM) | > 5000 | > 5000 | 1250 (≈ 2.15 mM) | 20 | 2500 (≈ 4.3 mM) | 100 | 2500 (≈ 4.3 mM) | 20 | 5000 (≈ 8.6 mM) | 1250 (≈ 2.15 mM) |  |  |  |  |  | 
OC(Cn1cncn1)(Cn1cncn1)c1ccc(F)cc1F [Fluconazole, reference compound] |  |  |  |  |  |  |  |  |  |  |  |  |  | > 5 | 5 (≈ 0.0163 mM) | > 5 | 5 (≈ 0.0163 mM) | 
CCOP(=O)(OCC)C1CC(Cn2c(=O)c3ccccc3n(Cc3ccccc3)c2=O)ON1C (stereo not drawn) [cis-20a/trans-20a (10:90), Diethyl trans-5-((1-benzyl-2,4-dioxo-1,4-dihydroquinazolin-3(2H)-yl)methyl)-2-methylisoxazolidin-3-yl)phosphonate] | 1250 (≈ 2.56 mM) | 5000 (≈ 10.3 mM) | > 5000 | > 5000 | 1250 (≈ 2.56 mM) | 100 | 2500 (≈ 5.13 mM) | >100 | 2500 (≈ 5.13 mM) | 31.7 | 2500 (≈ 5.13 mM) | 1250 (≈ 2.56 mM) |  |  |  |  |  | 
CCOP(=O)(CCCn1cc(Cn2c(=O)n(C(=O)c3ccccc3)c(=O)c3ccccc32)nn1)OCC [compound 7] |  |  |  |  |  |  |  |  |  |  |  |  |  |  |  |  |  | 4
